The values below come from US10450549B2, “Aryloxyphenoxypropionate tolerance in turfrgass species and use of AAD1 as a selectable marker” (Dow AgroSciences, LLC, priority 2004, dated 2019).

One test deals with AAD1 (v3) rice plantlets. In words: Rice tolerance testing with Assure II (sensitivity or resistance 10-14 DAT). It is filed as in vivo, Oryza sativa L. japonica cv. Taipei 309. The note with it: 140 g ae/ha. How it is done:
This concentration corresponds to approximately 140 g ae/ha. Each plant was spayed in a fume hood at a distance of 8-12 inches with 6 full squirts of the sprayer directed so that the entire plant was covered with an equal portion of herbicide. Each squirt delivered approximately 100 μl solution to the plantlet. Once sprayed, plantlets were allowed to dry for one hour before being moved out of the fume hood.

In test [1] the test system is ‘Justice’ tall fescue transgenic events. Kind of test: Quizalofop on AAD1 ‘Justice’ tall fescue plants. To be noted: written in present tense. In kind it is in vivo. The protocol: ‘Justice’ tall fescue transgenic plants events were selected on tissue culture media containing quizalofop, and confirmed via PCR amplification of an inserted T-strand.
A growth medium was prepared by mixing Promix® and sand in a 2 to 1 ratio. The medium was contained in plastic pots. When required to maintain plant health, a fungicide, insecticide, and/or other chemical or physical treatment was applied to stock plants. The plants were maintained in a greenhouse and treated with fertilizer and growth supplements as needed and water was added on a regular basis. Supplemental lighting was provided.
The selected T0 plants are sprayed with quizalofop at rates ranging in concentration, beyond the typical in field usage rate. This rate structure is selected based on the GR90 (herbicide rate which produces 90% injury and/or growth inhibition) and the rate that would also control susceptible monocot weed species. […]
The treated plants and control plants are placed in a greenhouse and watered by sub-irrigation to prevent wash-off of the test compounds. At various times after application, the condition of the test plants as compared with that of the untreated plants is determined visually and scored on a scale of 0 to 100 percent, where 0 corresponds to no injury or growth inhibition, and 100 corresponds to complete kill. […]

In test [2] the test system is Agrostis palustris var. Pencross. Kind of test: Bentgrass plate test bioassay for herbicide degradation. The note with it: AAD1 (v1) extract. In kind it is in vivo. The protocol:
Because of the selective nature of the herbicides being tested (i.e., monocot plants controlled by AOPP herbicides and dicot plants controlled by auxinic herbicides), wildtype Agrostis palustris var. Pencross and Arabidopsis thaliana var. Columbia were used as monocot and dicot test species, respectively. Each species is amenable to germination and growth in small Petri dishes.
Twenty to thirty sterilized seeds for each test species used were added onto a sterile, solidified agar Plate Test Medium (PTM) [2.5 mM KNO3, 2.5 mM KH2PO4, […], 10 mM NaEDTA (pH 8.0), 2 mM MgSO4, 2 mM Ca(NO3) 2, 70 μM H3BO3, 14 μM MnCl2, 0.5 μM CuSO4, 1 μM ZnSO4, 0.2 μM NaMoO4.2H2O, 10 μM NaCl, 10 nM CoCl2.H2O, 0.8% (w/v) sucrose, 0.4% agarose (w/v)] for bioassay in 60×15-mm Petri dishes (Falcon 1007). PTM was additionally modified by adding up to six rates of test herbicide standards or herbicide-enzyme test solution dilutions such that the four-fold concentration increments covered a rate range of three orders of magnitude with the GR50 rate (50% growth reduction) approximately in the center of the range.
For herbicide-enzyme test solutions, the maximal concentration was determined based on the nominal concentration before any subsequent enzymatic degradation would occur. Seeds were evenly spread by adding 3 ml of melted PTM of the same composition, swirling, and allowing to solidify. Plates were sealed and maintained under sterile conditions in a low light growth chamber (24 h day^−1, 100 μE/m^2s^1, 23° C.) for 7 days. Root length or root+shoot length were measured for five randomly chosen Arabidopsis and bentgrass plants, respectively, average mean length (percent of untreated control) vs. nominal herbicide concentration and GR50 determined.

Test [3] relates to T4 Arabidopsis homozygous for AAD1 (v3) (line AAD1.01.315.076). Kind of test: Foliar-applied auxinic herbicides on homozygous T4 AAD1 (v3) Arabidopsis, % injury 14 DAT. It is filed as in vivo, Arabidopsis thaliana. The note with it: AAD1.01.315.076.T4 homozygous AAD1 plants. In outline:
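Homozygous T4 AAD1 (v3) Arabidopsis (line AAD1.01.315.076) and a PAT/Cry1F transformed control were grown in pots and track-sprayed foliarly at 187 L/ha with herbicides formulated in 200 mM Hepes pH 7.5. Injury was rated 14 days after treatment, with 3-4 replicates averaged over two experiments.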

Test [4] relates to AAD1 (v3) T1 tobacco (events 721(2)-013.010 and 721(3)-008.005). In words: Segregating AAD1 T1 tobacco response to phenoxy auxin herbicides. It is filed as in vivo, Nicotiana tabacum. To be noted: rates below 1× field rates (560 g ae/ha); either event. The text has this:
Two AAD1 (v3) tobacco lines (event 721(2)-013.010 and 721(3)-008.005) were chosen from the T0 generation. The T1 seed was stratified, and sown into selection trays much like that of Arabidopsis (Example 6.4), followed by selective removal of untransformed nulls in this segregating population with 280 g ai/ha glufosinate (PAT selection). Survivors were transferred to individual 3-inch pots in the greenhouse. […] Improved consistency of response is anticipated in T1 plants not having come directly from tissue culture. These plants were compared against wildtype KY 160 tobacco. All plants were sprayed with the use of a track sprayer set at 187 L/ha. […] All applications were formulated in 200 mM Hepes buffer (pH 7.5). Each treatment was replicated 4 times. Plants were evaluated at 3 and 14 days after treatment. Plants were assigned injury rating with respect to stunting, chlorosis, and necrosis. The T1 generation is segregating, so some variable response is expected due to difference in zygosity. (Table 28).

As for `C[C@@H](Oc1ccc(Oc2cnc3cc(Cl)ccc3n2)cc1)C(=O)O` [quizalofop], the “Rating for sensitivity or resistance” value is “Dead” with AAD1 (v3) rice plantlets (Control rice plant); “No injury” with AAD1 (v3) rice plantlets (rice plant 63-1A); “No injury” in the test on AAD1 (v3) rice plantlets (rice plant 63-1F); “No injury” with AAD1 (v3) rice plantlets (rice plant 63-4B); “No injury” in the test with AAD1 (v3) rice plantlets (rice plant 63-4D); “Dead” in the test on AAD1 (v3) rice plantlets (rice plant 63-6C). The “injury of tall fescue events compared to non-transgenic control plants” value in test [1] is “less injury”.
On to `CC(Oc1ccc(Oc2ncc(C(F)(F)F)cc2Cl)cc1)C(=O)O` (stereo not shown) [haloxyfop], for which the “herbicidal activity after AAD1 (v1) treatment, bentgrass plate bioassay” value in test [2] is listed as “loss of herbicidal activity”.
On to `Nc1c(Cl)c(F)nc(OCC(=O)O)c1Cl` [Fluroxypyr], for which the “Ave % Injury 14DAT” value is 48% in test [3] (50 g ae/ha foliar), 75% in test [3] (200 g ae/ha foliar), 88% in test [3] (800 g ae/ha foliar) and 95% in test [3] (3200 g ae/ha foliar).
Consider `O=C(O)COc1ccc(Cl)cc1Cl` [2,4-D, 2,4-dichlorophenoxyacetic acid], for which, in test [4], the “injury of T1 AAD1 (v3) tobacco” value is recorded as “No injury was observed”.
